Laboratory results published in BindingDB's records for PubMed 34138567 (National Clinical Research Center For Geriatrics, 2021).
pIC50: −log10 of the molar value.

Key:
[1] = Inhibition of PI3Kdelta in anti-FceRI-stimulated human Basophil cells degranulation incubated for 30 mins
[2] = Inhibition of PI3Kdelta in conA-stimulated primary human T cell proliferation incubated for 1 hr by CellTiter-glo luminescent assay

pIC50 [1]: 8.09 | pIC50 [2]: 7.68
Structure (SMILES): C[C@H]1CC[C@@H](c2nc3cccc(Cl)c3c(=O)n2-c2cccc(F)c2)N1c1ncnc2[nH]cnc12
